Structures are written as SMILES. Non-standard residues stand in square brackets, D forms with d. Residues, ends and D or L forms follow the SMILES beside them. *: point of attachment. Dolaproine = CO[C@@H]([C@@H]1CCCN1)[C@@H](C)C(=O)O; Dil = CC[C@H](C)[C@H](NC)[C@@H](CC(=O)O)OC; X1 = C[C@@H](N*)[C@@H](O)c1ccccc1; NMeV = CN[C@H](C(=O)O)C(C)C

We go through four compounds from patent US10751423B2 (Massachusetts Institute of Technology, priority 2016, dated 2020).

For one data set, the system named is BCL-2 siRNA. The data set is described as follows: siRNA binding with various platinum species by MALDI-TOF-MS. Conditions: 10-fold excess of platinum species. The protocol: A single-stranded siRNA (UCAGGUACUCAGUCAUCCACATT) (SEQ ID NO: 3) was mixed with OxaPt(II) at a molar ratio of 1:10 in RNAase free water (RNA final concentration: 50 μM; Pt final concentration: 500 μM; total volume: 100 μL). The reaction mixture was placed in a 37° C. incubator and 10 μL of sample were removed at various time points to obtain MALDI-TOF-MS spectra (positive model). Analogous methods were employed to obtain spectra of the reaction products of siRNA with OxaPt(IV), CisPt(II) and CisPt(IV).
MALDI/TOF MS was used to ascertain the kinetics of platinum-RNA adduct formation using BCL-2 siRNA that was incubated with a 10-fold excess of various platinum(II) or platinum(IV) species. […] AAS measurements of siRNA that had been isolated after co-incubation with various platinum species was conducted to determine the concentration of Pt-siRNA adducts formed over time.

The nature of data set [1]: photostability under continuous laser irradiation. The format is physicochemical. An excerpt: FIG. 31D is a plot showing measurements of the photostability of various emissive components of core-shell nanoparticles under continuous irradiation. Note, the same excitation energies were utilized as in FIG. 31C; and, emission was detected using various excitation and emission filters. The photostability of DiR in THF (DiR in THF; black) was included for comparative purposes.
In addition to the emission of these extrinsic reporters, bioluminescence due to the luciferaseluciferin reaction and RFP fluorescence upon 535 nm excitation are also included in FIG. 31C, generating a spectral comparison of all reporters that were subsequently utilized for in vivo and ex vivo imaging (vide infra). Prior to embarking on comparisons of in vivo imaging with different reporters, we examined the photostability of each of the emissive components within the core-shell nanoparticles.

For data set [2] the following is noted: read-out: in vitro IC50; cited from earlier work.
A further data set relates to 5′-GMP. In words: 5′-GMP binding with various platinum species by 1HNMR. Conditions: 10 mM 5′-GMP, 5 mM Pt, 37° C. The method, then:
(10 mM) 5′-GMP and (5 mM) OxaPt(II) were mixed in 700 μL of D2O/H2O (v/v=1:9), transferred to an NMR tube and placed in a 37° C. water bath for various time periods prior to ^1HNMR measurement. […] The binding kinetics of 5′-GMP to each platinum species were determined by measuring the relative amounts of free and Pt-bound 5′-GMP at each time point, integrating the ratio of the ^1HNMR peaks at 8.5 ppm to 8.09 ppm.
OxaPt(II) and CisPt(II) are known to bind to guanine (G) and adenine (A) bases in both DNA and RNA. […] Formation of Pt-(5′-GMP)2 adducts were subsequently monitored by ESI-MS (FIG. 4A and FIG. 4B) and by MALDI/TOF MS (data not shown). Differences in the kinetics of adduct formation by various platinum(II) and platinum(IV) species were subsequently studied by ^1H NMR spectroscopy under similar conditions.

For `N.N.[Cl][Pt][Cl]` [CisPt(II), cisplatin], the “time at which Pt-siRNA adducts could be detected” value in the data set with BCL-2 siRNA was not above 30 m.

For the compound `CCCCCCCCCCCCCCCCCCN1C(=CC=CC=CC=CC2=[N+](CCCCCCCCCCCCCCCCCC)c3ccccc3C2(C)C)C(C)(C)c2ccccc21.[I-]` [DiR, 1,1′-dioctadecyl-3,3,3′,3′-tetramethylindotricarbocyanine iodide], the “initial emission intensity maintained” value in data set [1] (DiR incorporated within the PCL shell of the nanoparticles, 1 h) is given as 88%. In data set [1] (free DiR in THF, 1 h of continuous excitation), the fluorescence decrease result is listed as “over 30%”.

With `CC[C@H](C)[C@@H]([C@@H](CC(=O)N1CCC[C@H]1[C@H](OC)[C@@H](C)C(=O)N[C@H](C)[C@@H](O)c1ccccc1)OC)N(C)C(=O)[C@@H](NC(=O)[C@@H](NC)C(C)C)C(C)C` [MMAE, monomethyl auristatin E] (H-[NMeV]V[Dil][Dolaproine]-X1), the IC50 in data set [2] was 0.2 to 0.6 nM. Regarding `O=C1[O][Pt]2([NH][C@@H]3CCCC[C@H]3[NH]2)[O]C1=O` [OxaPt(II), Oxaliplatin], the “DACHPt(5′-GMP)2 adducts as share of the 5′-GMP pool” value in the data set with 5′-GMP (30 m incubation) is on record as “approximately 10%”; with 5′-GMP (6 h incubation), more than 40%. Moreover, the “time at which Pt-siRNA adducts could be detected” value in the data set with BCL-2 siRNA is recorded as 1 h.
